Counter-ions that a name gives are not always drawn.
Columns and labels:
[1] = system: non-segmental facial vitiligo; assay: Open-label clinical trial, topical treatment of non-segmental facial vitiligo; format: in vivo; conditions: 0.46% (w/w) topical solution twice daily; as early as 4 weeks after initiating treatment
Description: Subjects with a clinical diagnosis of new onset or actively progressing non-segmental facial vitiligo or worsening of existing facial lesions within the past 6 months were enrolled in an open-label clinical trial and treated with a 0.46% (w/w) topical solution formulation of 5-((2-((4-fluoro-3-methoxy-5-methylphenyl)amino)-5-methylpyrimidin-4-yl)amino)benzo[d]oxazol-2(3H)-one hydrochloride applied twice daily for 24 weeks by the protocol-prescribed method.
It is anticipated that the treatment will be judged to be safe and tolerable.

[2] = system: destruction of melanocytes; assay: Harris mouse model of vitiligo (adoptive transfer of TCR transgenic T cells), in-life vitiligo scoring; format: in vivo; conditions: both doses (50 and 100 mg/kg), oral gavage QD, scored 5 weeks after initiation of dosing
Description: The primary driver of vitiligo is an autoimmune attack on melanocytes, the cells which give skin its color. The initiating event(s) for this autoimmune attack is unknown, however the key cell type driving the destruction of the melanocytes is the CD8+ cytolytic T cell (CTL). A major cytokine that drives the activation/function of these CTL is IFNy, whose receptor signals via JAK1 and JAK2. Drugs that block the function of JAK1 or JAK2 would be predicted to be efficacious in reversing the autoimmune destruction of melanocytes, and this has been confirmed with pilot studies using tofacitinib (an inhibitor of JAK3/JAK1/JAK2) and ruxolitinib (an inhibitor of JAK1/JAK2). The development of novel therapeutics for treatment of vitiligo would be facilitated by an animal model of disease that specifically recapitulates the key features of the disease (IFNγ CD8+ CTL driven destruction of melanocytes). Dr. John Harris of the University of Massachusetts Medical School has developed such a model. […] Attempted induction of disease is then accomplished using a proprietary method and is measured by the degree of melanocyte destruction. […] In FIG. 1, each symbol represents an individual animal, scored 5 weeks after initiation of dosing. Statistical significance was determined with the Student's T test.

[3] = Plasma drug levels after oral gavage in the mouse vitiligo model; format: in vivo; conditions: oral gavage QD, post dose
[4] = system: autoimmune destruction of melanocytes; conditions: pilot studies; cited from earlier work

Structure (SMILES)	improvement of disease (pigmentation at lesion borders, repigmentation, Facial VASI index) [1]	efficacy in the model (vitiligo score, FIG. 1) [2]	time plasma drug levels were above the EC50 for blockade of IFNγ signaling ([3]; 50 mg/kg) [h]	time plasma drug levels were above the EC50 for blockade of IFNγ signaling ([3]; 100 mg/kg) [h]	efficacious in reversing the autoimmune destruction of melanocytes [4]
COc1cc(Nc2ncc(C)c(Nc3ccc4oc(=O)[nH]c4c3)n2)cc(C)c1F [5-((2-((4-fluoro-3-methoxy-5-methylphenyl)amino)-5-methylpyrimidin-4-yl)amino)benzo[d]oxazol-2(3H)-one hydrochloride]	early improvement in their disease	excellent efficacy	6	20	
N#CC[C@H](C1CCCC1)n1cc(-c2ncnc3[nH]ccc23)cn1 [ruxolitinib, (R)-3-(4-(7H-pyrrolo[2,3-d]pyrimidin-4-yl)-1H-pyrazol-1-yl)-3-cyclopentylpropanenitrile]					confirmed
C[C@@H]1CCN(C(=O)CC#N)C[C@@H]1N(C)c1ncnc2[nH]ccc12 [tofacitinib, 3-{(3R,4R)-4-methyl-3-[methyl-(7H-pyrrolo[2,3-d]pyrimidin-4-yl)-amino]-piperidin-1-yl}-3-oxo-propionitrile]					confirmed
